According to US20220315554A1, “COMPOUNDS COMPRISING A […] LIGAND AND USE THEREOF” (priority 2019, published 2022):

Tests used:
[1] = target: T1, FAP-expressing human WI-38 fibroblasts (Homo sapiens, UniProt Q12884); experiment: Competitive FACS binding assay; settings: pIC50 Category (FACS), competition with 3 nM Cy5-labeled compound, 4° C., 1 hour
T1 construct: FAP-expressing human WI-38 fibroblasts (ECACC) were cultured in EMEM; host or cells: WI-38 human fibroblasts
T1 sequence (Q12884 1-760): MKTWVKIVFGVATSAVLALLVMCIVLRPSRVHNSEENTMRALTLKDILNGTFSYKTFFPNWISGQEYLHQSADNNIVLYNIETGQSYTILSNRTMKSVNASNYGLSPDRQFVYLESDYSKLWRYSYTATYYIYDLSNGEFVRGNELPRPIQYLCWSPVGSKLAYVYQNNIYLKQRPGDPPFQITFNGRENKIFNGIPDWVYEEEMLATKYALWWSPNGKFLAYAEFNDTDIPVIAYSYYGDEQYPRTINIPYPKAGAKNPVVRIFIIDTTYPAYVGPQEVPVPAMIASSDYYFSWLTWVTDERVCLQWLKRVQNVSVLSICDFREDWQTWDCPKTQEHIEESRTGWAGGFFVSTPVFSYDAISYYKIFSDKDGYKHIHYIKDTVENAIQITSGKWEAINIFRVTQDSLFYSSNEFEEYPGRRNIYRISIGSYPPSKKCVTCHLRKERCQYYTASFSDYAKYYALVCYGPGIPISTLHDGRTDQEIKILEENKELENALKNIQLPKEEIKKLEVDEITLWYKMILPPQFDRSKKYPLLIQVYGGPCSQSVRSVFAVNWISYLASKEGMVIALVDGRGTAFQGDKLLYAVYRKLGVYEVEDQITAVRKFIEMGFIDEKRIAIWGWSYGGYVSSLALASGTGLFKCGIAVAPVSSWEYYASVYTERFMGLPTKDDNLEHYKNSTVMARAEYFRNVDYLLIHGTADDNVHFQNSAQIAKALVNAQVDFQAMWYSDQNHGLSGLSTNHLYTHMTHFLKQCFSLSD
Procedure: Cells were analyzed in an Attune NxT flow cytometer. […]

[2] = target: T2, Human recombinant FAP (Homo sapiens, UniProt Q12884); experiment: FRET-based FAP protease activity assay; assay type: biochemical; set-up: purchased R&D systems 3715-SE; settings: pIC50 Category (Activity), FRET substrate, 37° C.
T2 sequence (Q12884 1-760): T1 sequence (Q12884 1-760)

Row | SMILES | IC50 [1] | IC50 [2]
1 | CCCCCC(=O)N[C@H]1CSCc2cc(CSCCNC(=O)CCC(=O)NCCCOCCOCCOCCCNC(=O)CN3CCN(CC(=O)O)CCN(CC(=O)O)CC3)cc(c2)CSC[C@@H](C(=O)O)NC(=O)[C@H](Cc2ccccc2)NC(=O)[C@H](CCC(N)=O)NC(=O)[C@H]([C@@H](C)O)NC(=O)[C@@H]2CCCN2C(=O)[C@@H]2CCCN2C1=O [3BP-4344, Hex-[Cys-(tMeBn(NOTA-Ttds-AET))-Pro-Pro-Thr-Gln-Phe-Cys]-OH] | < 10 nM | < 10 nM
2 | CCCCCC(=O)N[C@H]1CSCc2cc(CSCCNC(=O)CCC(=O)NCCCOCCOCCOCCCNC(=O)CN(CCN(CCN(CC(=O)O)CC(=O)O)CC(=O)O)CC(=O)O)cc(c2)CSC[C@@H](C(=O)O)NC(=O)[C@H](Cc2ccccc2)NC(=O)[C@H](CCC(N)=O)NC(=O)[C@H]([C@@H](C)O)NC(=O)[C@@H]2CCCN2C(=O)[C@@H]2CCCN2C1=O [3BP-4352, Hex-[Cys-(tMeBn(DTPA2-Ttds-AET))-Pro-Pro-Thr-Gln-Phe-Cys]-OH] | 100 to 794 nM | 10 to 79.4 nM
3 | CCCCCC(=O)N[C@H]1CSCc2cc(CSCCNC(=O)CCOCCOCCOCCOCCOCCOCCNC(=O)CN(CCN(CCN(CC(=O)O)CC(=O)O)CC(=O)O)CC(=O)O)cc(c2)CSC[C@@H](C(=O)O)NC(=O)[C@H](Cc2ccccc2)NC(=O)[C@H](CCC(N)=O)NC(=O)[C@H]([C@@H](C)O)NC(=O)[C@@H]2CCCN2C(=O)[C@@H]2CCCN2C1=O [3BP-4353, Hex-[Cys-(tMeBn(DTPA2-PEG6-AET))-Pro-Pro-Thr-Gln-Phe-Cys]-OH] | 10 to 79.4 nM | 10 to 79.4 nM
4 | CCCCCC(=O)N[C@H]1CSCc2cc(CSCCNC(=O)CCCC(=O)Nc3ccc(C[C@H](CN(CCN(CC(=O)O)CC(=O)O)CC(=O)O)N(CC(=O)O)CC(=O)O)cc3)cc(c2)CSC[C@@H](C(=O)O)NC(=O)[C@H](Cc2ccccc2)NC(=O)[C@H](CCC(N)=O)NC(=O)[C@H]([C@@H](C)O)NC(=O)[C@@H]2CCCN2C(=O)[C@@H]2CCCN2C1=O [3BP-4366, Hex-[Cys-(tMeBn(DTPABzl-Glutar-AET))-Pro-Pro-Thr-Gln-Phe-Cys]-OH] | 100 to 794 nM | 100 to 794 nM
5 | CCCCCC(=O)N[C@H]1CSCc2cc(CSCCNC(=O)CN3CCN4CCN5CCN(CC3)CC(=O)[O][Lu]([O]C(=O)C4)[O]C(=O)C5)cc(c2)CSC[C@@H](C(=O)N[C@@H](CC(=O)O)C(=O)NCCCC(=O)NC(CCCNC(=N)N)C(=O)NCCCOCCOCCOCCCNC(=O)CCC(=O)NC(CCCCNC(=O)c2ccc(-c3c4ccc(=N)c(S(=O)(=O)O)c-4oc4c(S(=O)(=O)O)c(N)ccc34)c(C(=O)O)c2)C(N)=O)NC[C@H](Cc2ccccc2)NC(=O)[C@H](CCC(N)=O)NC(=O)C([C@@H](C)O)NC(=O)[C@@H]2CCCN2C(=O)[C@@H]2CCCC2C1=O (stereo partly drawn) [3BP-4372, Hex-[Cys(tMeBn(LuDOTA-AET))-Pro-Pro-Thr-Gln-Phe-Cys]-Asp-Gab-Arg-Ttds-Lys(AF488)-NH2] | < 10 nM | < 10 nM
6 | CCCCCC(=O)N[C@H]1CSCc2cc(CSCCNC(=O)CN3CCN4CCN5CCN(CC3)CC(=O)[O][Lu]([O]C(=O)C4)[O]C(=O)C5)cc(c2)CSC[C@@H](C(=O)N[C@@H](CC(=O)O)C(=O)NCCCC(=O)N[C@@H](CCCNC(=N)N)C(=O)NCCCOCCOCCOCCCNC(=O)CCC(=O)NCCCOCCOCCOCCCNC(=O)CCC(=O)NCCCOCCOCCOCCCNC(=O)CCC(=O)N[C@@H](CCCCNC(=O)c2ccc(-c3c4ccc(=N)c(S(=O)(=O)O)c-4oc4c(S(=O)(=O)O)c(N)ccc34)c(C(=O)O)c2)C(N)=O)NC[C@H](Cc2ccccc2)NC(=O)[C@H](CCC(N)=O)NC(=O)C([C@@H](C)O)NC(=O)[C@@H]2CCCN2C(=O)[C@@H]2CCCC2C1=O (stereo partly drawn) [3BP-4373, Hex-[Cys(tMeBn(LuDOTA-AET))-Pro-Pro-Thr-Gln-Phe-Cys]-Asp-Gab-Arg-Ttds-Ttds-Ttds-Lys(AF488)-NH2] | 10 to 79.4 nM | < 10 nM
7 | CCCCCC(=O)N[C@H]1CSCc2cc(CSCCNC(=O)CCC(=O)NCCCOCCOCCOCCCNC(=O)c3ccc(NN)nc3)cc(c2)CSC[C@@H](C(=O)O)NC(=O)[C@H](Cc2ccccc2)NC(=O)[C@H](CCC(N)=O)NC(=O)[C@H]([C@@H](C)O)NC(=O)[C@@H]2CCCN2C(=O)[C@@H]2CCCN2C1=O [3BP-4376, Hex-[Cys-(tMeBn(H-HYNIC-Ttds-AET))-Pro-Pro-Thr-Gln-Phe-Cys]-OH] | < 10 nM | < 10 nM
8 | CCCCCC(=O)N[C@H]1CSCc2cc(CSCCNC(=O)CN3CCN(CC(=O)O)CCN(CC(=O)O)Cc4cccc(n4)C3)cc(c2)CSC[C@@H](C(=O)O)NC(=O)[C@H](Cc2ccccc2)NC(=O)[C@H](CCC(N)=O)NC(=O)[C@H]([C@@H](C)O)NC(=O)[C@@H]2CCCN2C(=O)[C@@H]2CCCN2C1=O [3BP-4379, Hex-[Cys-(tMeBn(PCTA-AET))-Pro-Pro-Thr-Gln-Phe-Cys]-OH] | < 10 nM | < 10 nM
9 | CCCCCC(=O)N[C@H]1CSCc2cc(CSCCNC(=O)CCP(=O)(O)CN3CCN(CP(=O)(O)CO)CCN(CP(=O)(O)CO)CC3)cc(c2)CSC[C@@H](C(=O)O)NC(=O)[C@H](Cc2ccccc2)NC(=O)[C@H](CCC(N)=O)NC(=O)[C@H]([C@@H](C)O)NC(=O)[C@@H]2CCCN2C(=O)[C@@H]2CCCN2C1=O [3BP-4380, Hex-[Cys-(tMeBn(NOPO-AET))-Pro-Pro-Thr-Gln-Phe-Cys]-OH] | < 10 nM | < 10 nM
10 | CCCCCC(=O)N[C@H]1CSCc2cc(CSCCNC(=O)CCc3ccc(O)c(CN(CCN(CC(=O)O)Cc4cc(CCC(=O)O)ccc4O)CC(=O)O)c3)cc(c2)CSC[C@@H](C(=O)O)NC(=O)[C@H](Cc2ccccc2)NC(=O)[C@H](CCC(N)=O)NC(=O)[C@H]([C@@H](C)O)NC(=O)[C@@H]2CCCN2C(=O)[C@@H]2CCCN2C1=O [3BP-4381, Hex-[Cys-(tMeBn(HBED-AET))-Pro-Pro-Thr-Gln-Phe-Cys]-OH] | 10 to 79.4 nM | 10 to 79.4 nM
11 | CCCCCC(=O)N[C@H]1CSCc2cc(CSCCNC(=O)CCCCC3(N(C)CC(=O)O)CN(CC(=O)O)CCN(CC(=O)O)C3)cc(c2)CSC[C@@H](C(=O)O)NC(=O)[C@H](Cc2ccccc2)NC(=O)[C@H](CCC(N)=O)NC(=O)[C@H]([C@@H](C)O)NC(=O)[C@@H]2CCCN2C(=O)[C@@H]2CCCN2C1=O [3BP-4382, Hex-[Cys-(tMeBn(DATA-AET))-Pro-Pro-Thr-Gln-Phe-Cys]-OH] | 10 to 79.4 nM | 10 to 79.4 nM
12 | CCCCCC(=O)N[C@H]1CSCc2cc(CSCCNC(=O)CCC(=O)NCCCOCCOCCOCCCNC(=O)CCP(=O)(O)CN3CCN(CP(=O)(O)CO)CCN(CP(=O)(O)CO)CC3)cc(c2)CSC[C@@H](C(=O)O)NC(=O)[C@H](Cc2ccccc2)NC(=O)[C@H](CCC(N)=O)NC(=O)[C@H]([C@@H](C)O)NC(=O)[C@@H]2CCCN2C(=O)[C@@H]2CCCN2C1=O [3BP-4385, Hex-[Cys(tMeBn(NOPO-Ttds-AET))-Pro-Pro-Thr-Gln-Phe-Cys]-OH] | 10 to 79.4 nM | 10 to 79.4 nM
13 | CCCC(NC(=O)CCC(=O)NCCCOCCOCCOCCCNC(=O)CN1CCN(CC(=O)O)CCN(CC(=O)O)CCN(CC(=O)O)CC1)C(=O)N[C@H]1CSCc2cc(CSCCNC(=O)CN3CCN(CC(=O)O)CCN(CC(=O)O)CCN(CC(=O)O)CC3)cc(c2)CSC[C@@H](C(=O)O)NC(=O)[C@H](Cc2ccccc2)NC(=O)[C@H](CCC(N)=O)NC(=O)[C@H]([C@@H](C)O)NC(=O)[C@@H]2CCCN2C(=O)[C@@H]2CCCN2C1=O (stereo partly drawn) [3BP-4386, DOTA-Ttds-Nle-[Cys(tMeBn(DOTA-AET))-Pro-Pro-Thr-Gln-Phe-Cys]-OH] | 10 to 79.4 nM | 10 to 79.4 nM
